The source of these data is US9765075B2, “Substituted bridged urea analogs as sirtuin modulators” (GLAXOSMITHKLINE LLC, priority 2013, dated 2017).

The test deals with T1, SIRT1 (Homo sapiens, UniProt Q96EB6).
T1 sequence (Q96EB6 1-747): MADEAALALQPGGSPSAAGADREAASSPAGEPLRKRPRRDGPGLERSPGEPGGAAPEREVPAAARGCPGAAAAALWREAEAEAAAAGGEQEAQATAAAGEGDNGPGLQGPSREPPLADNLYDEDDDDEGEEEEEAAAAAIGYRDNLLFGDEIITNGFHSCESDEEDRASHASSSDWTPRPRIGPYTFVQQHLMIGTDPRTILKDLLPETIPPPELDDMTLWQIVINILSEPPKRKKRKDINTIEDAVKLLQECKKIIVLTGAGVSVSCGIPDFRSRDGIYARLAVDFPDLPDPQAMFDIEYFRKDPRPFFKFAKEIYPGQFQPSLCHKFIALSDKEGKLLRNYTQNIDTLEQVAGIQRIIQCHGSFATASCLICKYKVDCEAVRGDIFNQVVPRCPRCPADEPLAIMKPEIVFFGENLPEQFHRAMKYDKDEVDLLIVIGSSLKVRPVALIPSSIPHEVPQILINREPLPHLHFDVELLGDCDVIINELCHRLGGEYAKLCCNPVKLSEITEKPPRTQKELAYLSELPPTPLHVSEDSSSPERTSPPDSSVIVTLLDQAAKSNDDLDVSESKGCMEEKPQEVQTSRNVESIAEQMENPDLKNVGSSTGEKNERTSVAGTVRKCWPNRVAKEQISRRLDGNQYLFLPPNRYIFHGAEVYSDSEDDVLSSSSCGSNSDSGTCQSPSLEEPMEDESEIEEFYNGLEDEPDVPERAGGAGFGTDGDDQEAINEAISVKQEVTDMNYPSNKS
The test is described as follows: Trp mass spectrometry assay (SIRT1 activation). Format: biochemical. Conditions: Trp peptide substrate; for Tryp AVG EC1.5 (μM): concentration of test compound that results in 150% activation of SIRT1; for Emax: percent maximum fold activation of SIRT1, read-out: Tryp % Fold Act. The method in brief: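 Activation is expressed as EC1.5, the concentration raising activity 50% above DMSO control, and as maximum percent of control. Mass-spec readout was OAADPR or deacetylated Trp peptide after a formic-acid-quenched 25-min, 25 °C reaction: 10 nM bacterially expressed His-SIRT1, 0.5 μM acetyl-p53-derived peptide, 120 μM NAD+, pH 7.5 HEPES with […].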

As to `O=C(Nc1ccccn1)N1c2nc(-c3cccnc3)ccc2N2CCC[C@H]1C2` [Example 441], the “Tryp AVG EC1.5 (μM)” value is on record as “B (EC1.5 1-25 μM)” and the Emax was at least 150%.

In the case of `COc1cc(NC(=O)N2c3nc(-c4cccnc4)ccc3N3CCC[C@H]2C3)ncn1` [Example 442], the “Tryp AVG EC1.5 (μM)” value is “B (EC1.5 1-25 μM)” and the Emax was at least 150%.

With `O=C(Nc1cnccn1)N1c2nc(-c3cccc(Cl)c3)cc(O)c2N2CC[C@H]1C2` [Example 443], the “Tryp AVG EC1.5 (μM)” value is “B (EC1.5 1-25 μM)” and the Emax was at least 150%.

As to `CC(C)(C)OC(=O)NCc1ccc(NC(=O)N2c3nc(-c4cccc(C(F)(F)F)c4)ccc3N3CCC[C@H]2C3)cc1` [Example 445], the “Tryp AVG EC1.5 (μM)” value was “A (EC1.5<1 μM)” and the Emax was at least 150%.

Take `COC(=O)N1CCCN(c2ccc3c(n2)N(C(=O)Nc2ccncn2)[C@H]2CCCN3C2)CC1` [Example 446]: the “Tryp AVG EC1.5 (μM)” value is “B (EC1.5 1-25 μM)” and the Emax is at least 150%.

Consider `CC(C)N1CCCN(c2ccc3c(n2)N(C(=O)Nc2ccncn2)[C@H]2CCCN3C2)CC1` [Example 447], for which the “Tryp AVG EC1.5 (μM)” value was “C (EC1.5>25 μM)” and the Emax is under 150%.

With `O=C(Nc1ccccn1)N1c2nc(-c3ccnc(N4CC[C@@H](F)C4)c3)ccc2N2CC[C@H]1C2` [Example 448], the “Tryp AVG EC1.5 (μM)” value is listed as “B (EC1.5 1-25 μM)” and the Emax is at least 150%.

For `N#Cc1ccccc1-c1ccc2c(n1)N(C(=O)Nc1ccccn1)[C@H]1CCCN2C1` [Example 449], the “Tryp AVG EC1.5 (μM)” value is recorded as “B (EC1.5 1-25 μM)” and the Emax is at least 150%.

`N#Cc1ccccc1-c1ccc2c(n1)N(C(=O)Nc1cnccn1)[C@H]1CCCN2C1` [Example 450]: the “Tryp AVG EC1.5 (μM)” value was “B (EC1.5 1-25 μM)” and the Emax is at least 150%.

As for `N#Cc1ccccc1-c1ccc2c(n1)N(C(=O)Nc1ccncn1)[C@H]1CCCN2C1` [Example 451], the “Tryp AVG EC1.5 (μM)” value is given as “B (EC1.5 1-25 μM)” and the Emax is at least 150%.

Take `O=C(Nc1cnccn1)N1c2nc(-c3cncc(C(F)(F)F)c3)ccc2N2CCC[C@H]1C2` [Example 452]: the “Tryp AVG EC1.5 (μM)” value is “A (EC1.5<1 μM)” and the Emax is at least 150%.

In the case of `O=C(Nc1cncc(F)c1)N1c2nc(-c3cccnc3)ccc2N2CCC[C@H]1C2` [Example 453], the “Tryp AVG EC1.5 (μM)” value is recorded as “B (EC1.5 1-25 μM)” and the Emax is at least 150%.

For the compound `O=C(Nc1cnccn1)N1c2nc(-c3cccnc3)ccc2N2CCC[C@H]1C2` [Example 454], the “Tryp AVG EC1.5 (μM)” value is reported as “B (EC1.5 1-25 μM)” and the Emax was at least 150%.

As to `O=C(Nc1cccnc1)N1c2nc(-c3cccnc3)ccc2N2CCC[C@H]1C2` [Example 455], the “Tryp AVG EC1.5 (μM)” value was “B (EC1.5 1-25 μM)” and the Emax is at least 150%.

As for `O=C(Nc1ccncn1)N1c2nc(-c3cccnc3)ccc2N2CCC[C@H]1C2` [Example 456], the “Tryp AVG EC1.5 (μM)” value is given as “B (EC1.5 1-25 μM)” and the Emax was at least 150%.

Turning to `O=C(Nc1cccnn1)N1c2nc(-c3cccnc3)ccc2N2CCC[C@H]1C2` [Example 457], the “Tryp AVG EC1.5 (μM)” value is “B (EC1.5 1-25 μM)”.

As to `CN(C)c1ccc(-c2ccc3c(n2)N(C(=O)Nc2cnccn2)[C@H]2CCN3C2)cn1` [Example 458], the “Tryp AVG EC1.5 (μM)” value is “B (EC1.5 1-25 μM)” and the Emax is at least 150%.

As for `N#Cc1cncc(-c2ccc3c(n2)N(C(=O)Nc2cnccn2)[C@H]2CCN3C2)c1` [Example 459], the “Tryp AVG EC1.5 (μM)” value is listed as “A (EC1.5<1 μM)” and the Emax is at least 150%.

In the case of `O=C(Nc1cncc(F)c1)N1c2nc(-c3cccc(C(F)(F)F)c3)ccc2S(=O)(=O)N2CC[C@H]1C2` [Example 460], the “Tryp AVG EC1.5 (μM)” value is on record as “B (EC1.5 1-25 μM)” and the Emax was at least 150%.

As for `O=C(Nc1cnccn1)N1c2nc(-c3ccc(Cl)c(Cl)c3)ccc2N2CC[C@H]1C2` [Example 461], the “Tryp AVG EC1.5 (μM)” value is reported as “A (EC1.5<1 μM)” and the Emax is at least 150%.

`O=C(Nc1cnccn1)N1c2nc(-c3ccnc(N4CC[C@@H](F)C4)c3)ccc2N2CC[C@H]1C2` [Example 462]: the “Tryp AVG EC1.5 (μM)” value is reported as “B (EC1.5 1-25 μM)” and the Emax was at least 150%.

Take `O=C(Nc1ccc(F)cn1)N1c2nc(-c3ccnc(N4CC[C@H](F)C4)c3)ccc2N2CC[C@H]1C2` [Example 463]: the “Tryp AVG EC1.5 (μM)” value is listed as “A (EC1.5<1 μM)” and the Emax is at least 150%.

Take `O=C(Nc1cncc(F)c1)N1c2nc(-c3ccnc(N4CC[C@@H](F)C4)c3)ccc2N2CC[C@H]1C2` [Example 464]: the “Tryp AVG EC1.5 (μM)” value is recorded as “B (EC1.5 1-25 μM)” and the Emax was at least 150%.

For the compound `Cc1ccc(-c2ccc3c(n2)N(C(=O)Nc2ccccn2)[C@H]2CCCN3C2)cn1` [Example 465], the “Tryp AVG EC1.5 (μM)” value is given as “B (EC1.5 1-25 μM)” and the Emax was at least 150%.

As to `Cc1nc(NC(=O)N2c3nc(-c4cccnc4)ccc3N3CCC[C@H]2C3)sc1C` [Example 466], the “Tryp AVG EC1.5 (μM)” value is recorded as “B (EC1.5 1-25 μM)” and the Emax is at least 150%.

Take `Cc1ccc(-c2ccc3c(n2)N(C(=O)Nc2cccnn2)[C@H]2CCCN3C2)cn1` [Example 467]: the “Tryp AVG EC1.5 (μM)” value is on record as “B (EC1.5 1-25 μM)” and the Emax is at least 150%.

In the case of `Cc1cc(-c2ccc3c(n2)N(C(=O)Nc2ccncn2)[C@H]2CCN3C2)ccn1` [Example 468], the “Tryp AVG EC1.5 (μM)” value was “B (EC1.5 1-25 μM)” and the Emax is at least 150%.

Turning to `O=C(Nc1cncc(F)c1)N1c2nc(N3CC[C@H](F)C3)ccc2S(=O)(=O)N2CC[C@H]1C2` [Example 469], the “Tryp AVG EC1.5 (μM)” value is “C (EC1.5>25 μM)” and the Emax is under 150%.

In the case of `O=C(Nc1ccccn1)N1c2nc(-c3cncc(F)c3)ccc2N2CCC[C@H]1C2` [Example 470], the “Tryp AVG EC1.5 (μM)” value was “A (EC1.5<1 μM)” and the Emax was at least 150%.

For `Cc1nc(NC(=O)N2c3nc(-c4cncc(F)c4)ccc3N3CCC[C@H]2C3)sc1C` [Example 471], the “Tryp AVG EC1.5 (μM)” value was “B (EC1.5 1-25 μM)” and the Emax was at least 150%.

For the compound `O=C(Nc1cnccn1)N1c2nc(-c3cccc(C(F)(F)F)c3)ccc2N2CCC1CC2` [Example 472], the “Tryp AVG EC1.5 (μM)” value is given as “A (EC1.5<1 μM)” and the Emax was at least 150%.

Take `O=C(Nc1cccc(-c2cnco2)c1)N1c2nc(-c3cccc(C(F)(F)F)c3)ccc2N2CCC1CC2` [Example 473]: the “Tryp AVG EC1.5 (μM)” value is “A (EC1.5<1 μM)” and the Emax is at least 150%.

As to `O=C(Nc1ccc(F)cn1)N1c2nc(-c3ccnc(N4CC[C@@H](F)C4)c3)ccc2N2CC[C@H]1C2` [Example 474], the “Tryp AVG EC1.5 (μM)” value is reported as “A (EC1.5<1 μM)” and the Emax is at least 150%.

With `O=C(Nc1cncc(F)c1)N1c2nc(-c3ccnc(N4CC[C@H](F)C4)c3)ccc2N2CC[C@H]1C2` [Example 475], the “Tryp AVG EC1.5 (μM)” value is “A (EC1.5<1 μM)” and the Emax is at least 150%.

For `Cc1nc(NC(=O)N2c3nc(-c4ccccc4C#N)ccc3N3CCC[C@H]2C3)sc1C` [Example 476], the “Tryp AVG EC1.5 (μM)” value is reported as “B (EC1.5 1-25 μM)” and the Emax was at least 150%.

In the case of `Cc1ccc(-c2ccc3c(n2)N(C(=O)Nc2cncc(F)c2)[C@H]2CCCN3C2)cn1` [Example 477], the “Tryp AVG EC1.5 (μM)” value was “B (EC1.5 1-25 μM)” and the Emax was at least 150%.

`COc1cc(NC(=O)N2c3nc(-c4ccc(C)nc4)ccc3N3CCC[C@H]2C3)ncn1` [Example 478]: the “Tryp AVG EC1.5 (μM)” value is “B (EC1.5 1-25 μM)” and the Emax is at least 150%.
